What was measured:
[1] = system: TK-10; experiment: NCI 60 panel growth inhibition (SRB), renal cancer; type: cell-based, human
Summary of the method: (§1)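 Cells were plated at 5000–40,000/well and drug was added after 24 h at five concentrations (10-fold or ½ log dilutions), with TCA-fixed time-zero plates as reference. Growth was measured by SRB absorbance, percentage growth was computed against time-zero and control, and TGI was taken at Ti = Tz.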

[2] = system: A498; experiment: NCI 60 panel growth inhibition (SRB), renal cancer; type: cell-based, human
Summary of the method: as §1

[3] = system: CAKI-1; experiment: NCI 60 panel growth inhibition (SRB), renal cancer; type: cell-based, human
Summary of the method: as §1

[4] = system: ACHN; experiment: NCI 60 panel growth inhibition (SRB), renal cancer; type: cell-based, human
Summary of the method: as §1

[5] = system: RXF 393; experiment: NCI 60 panel growth inhibition (SRB), renal cancer; type: cell-based, human
Summary of the method: as §1

[6] = system: 786-0; experiment: NCI 60 panel growth inhibition (SRB), renal cancer; type: cell-based, human
Summary of the method: as §1

[7] = system: SN12C; experiment: NCI 60 panel growth inhibition (SRB), renal cancer; type: cell-based, human
Summary of the method: as §1

[8] = system: UO-31; experiment: NCI 60 panel growth inhibition (SRB), renal cancer; type: cell-based, human
Summary of the method: as §1

[9] = target: FGFR-1 (Homo sapiens, UniProt P11362); experiment: Kinase inhibitory activity on FGFR-1; type: biochemical; settings: mean of two independent experiments ± SD
[10] = target: T1, CDK2 (Homo sapiens, UniProt P24941); experiment: CDK2 kinase assay (BPS kit, Kinase-Glo Max); type: biochemical
T1 construct: purchased BPS Biosciences 79599

[11] = target: CDK1 (Homo sapiens, UniProt P06493); experiment: Kinase inhibitory activity on CDK1; type: biochemical; settings: mean of two independent experiments ± SD
[12] = system: HT29; experiment: NCI 60 panel growth inhibition (SRB), colon cancer; type: cell-based, human
Summary of the method: as §1

[13] = system: MCF7; experiment: NCI 60 panel growth inhibition (SRB), breast cancer; type: cell-based, human
Summary of the method: as §1

[14] = system: T-47D; experiment: as above; type: cell-based, human; settings: Homo sapiens, T47D, five dose
Summary of the method: as §1

[15] = system: HS 578T; experiment: as above; type: cell-based, human
Summary of the method: as §1

[16] = system: MDA-MB-231/ATCC; experiment: as above; type: cell-based, human
Summary of the method: as §1

[17] = system: MDA-MB-468; experiment: as above; type: cell-based, human
Summary of the method: as §1

[18] = system: BT-549; experiment: as above; type: cell-based, human
Summary of the method: as §1

[19] = system: PC-3; experiment: NCI 60 panel growth inhibition (SRB), prostate cancer; type: cell-based, human
Summary of the method: as §1

[20] = system: DU-145; experiment: as above; type: cell-based, human
Summary of the method: as §1

[21] = target: VEGFR-2 (Homo sapiens, UniProt P35968); experiment: Kinase inhibitory activity on VEGFR-2; type: biochemical; settings: mean of two independent experiments ± SD
[22] = target: CDK5 (Homo sapiens, UniProt Q00535); experiment: Kinase inhibitory activity on CDK5; type: biochemical; settings: mean of two independent experiments ± SD
[23] = system: UACC-257; experiment: NCI 60 panel growth inhibition (SRB), melanoma; type: cell-based, human
Summary of the method: as §1

[24] = system: SK-MEL-5; experiment: NCI 60 panel growth inhibition (SRB), melanoma; type: cell-based, human
Summary of the method: as §1

[25] = system: UACC-62; experiment: NCI 60 panel growth inhibition (SRB), melanoma; type: cell-based, human
Summary of the method: as §1

[26] = system: MDA-MB-435; experiment: NCI 60 panel growth inhibition (SRB), melanoma; type: cell-based, human
Summary of the method: as §1

[27] = system: LOX IMVI; experiment: NCI 60 panel growth inhibition (SRB), melanoma; type: cell-based, human
Summary of the method: as §1

[28] = system: MALME-3M; experiment: NCI 60 panel growth inhibition (SRB), melanoma; type: cell-based, human
Summary of the method: as §1

[29] = system: SK-MEL-2; experiment: NCI 60 panel growth inhibition (SRB), melanoma; type: cell-based, human
Summary of the method: as §1

[30] = system: SK-MEL-28; experiment: NCI 60 panel growth inhibition (SRB), melanoma; type: cell-based, human
Summary of the method: as §1

[31] = system: M14; experiment: NCI 60 panel growth inhibition (SRB), melanoma; type: cell-based, human
Summary of the method: as §1

[32] = system: U251; experiment: NCI 60 panel growth inhibition (SRB), CNS cancer; type: cell-based, human
Summary of the method: as §1

Chain of CDK5 (Q00535 whole entry, species assumed): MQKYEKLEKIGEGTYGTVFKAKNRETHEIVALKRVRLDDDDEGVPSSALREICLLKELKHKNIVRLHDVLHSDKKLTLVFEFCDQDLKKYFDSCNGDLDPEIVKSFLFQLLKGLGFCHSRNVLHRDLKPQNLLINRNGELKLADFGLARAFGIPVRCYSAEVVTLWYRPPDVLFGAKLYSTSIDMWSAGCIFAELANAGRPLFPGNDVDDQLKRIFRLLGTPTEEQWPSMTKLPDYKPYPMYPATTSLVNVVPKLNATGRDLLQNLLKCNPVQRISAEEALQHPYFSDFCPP
Chain of CDK5 (Q15078 99-307 partner limits assumed, species assumed): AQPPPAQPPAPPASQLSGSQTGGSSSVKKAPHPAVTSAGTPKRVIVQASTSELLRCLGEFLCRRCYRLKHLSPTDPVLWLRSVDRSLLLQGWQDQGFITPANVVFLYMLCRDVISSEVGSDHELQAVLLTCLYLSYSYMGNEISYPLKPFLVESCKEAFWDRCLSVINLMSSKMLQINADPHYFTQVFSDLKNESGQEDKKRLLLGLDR
Chain of VEGFR-2 (P35968 20-1356, species assumed): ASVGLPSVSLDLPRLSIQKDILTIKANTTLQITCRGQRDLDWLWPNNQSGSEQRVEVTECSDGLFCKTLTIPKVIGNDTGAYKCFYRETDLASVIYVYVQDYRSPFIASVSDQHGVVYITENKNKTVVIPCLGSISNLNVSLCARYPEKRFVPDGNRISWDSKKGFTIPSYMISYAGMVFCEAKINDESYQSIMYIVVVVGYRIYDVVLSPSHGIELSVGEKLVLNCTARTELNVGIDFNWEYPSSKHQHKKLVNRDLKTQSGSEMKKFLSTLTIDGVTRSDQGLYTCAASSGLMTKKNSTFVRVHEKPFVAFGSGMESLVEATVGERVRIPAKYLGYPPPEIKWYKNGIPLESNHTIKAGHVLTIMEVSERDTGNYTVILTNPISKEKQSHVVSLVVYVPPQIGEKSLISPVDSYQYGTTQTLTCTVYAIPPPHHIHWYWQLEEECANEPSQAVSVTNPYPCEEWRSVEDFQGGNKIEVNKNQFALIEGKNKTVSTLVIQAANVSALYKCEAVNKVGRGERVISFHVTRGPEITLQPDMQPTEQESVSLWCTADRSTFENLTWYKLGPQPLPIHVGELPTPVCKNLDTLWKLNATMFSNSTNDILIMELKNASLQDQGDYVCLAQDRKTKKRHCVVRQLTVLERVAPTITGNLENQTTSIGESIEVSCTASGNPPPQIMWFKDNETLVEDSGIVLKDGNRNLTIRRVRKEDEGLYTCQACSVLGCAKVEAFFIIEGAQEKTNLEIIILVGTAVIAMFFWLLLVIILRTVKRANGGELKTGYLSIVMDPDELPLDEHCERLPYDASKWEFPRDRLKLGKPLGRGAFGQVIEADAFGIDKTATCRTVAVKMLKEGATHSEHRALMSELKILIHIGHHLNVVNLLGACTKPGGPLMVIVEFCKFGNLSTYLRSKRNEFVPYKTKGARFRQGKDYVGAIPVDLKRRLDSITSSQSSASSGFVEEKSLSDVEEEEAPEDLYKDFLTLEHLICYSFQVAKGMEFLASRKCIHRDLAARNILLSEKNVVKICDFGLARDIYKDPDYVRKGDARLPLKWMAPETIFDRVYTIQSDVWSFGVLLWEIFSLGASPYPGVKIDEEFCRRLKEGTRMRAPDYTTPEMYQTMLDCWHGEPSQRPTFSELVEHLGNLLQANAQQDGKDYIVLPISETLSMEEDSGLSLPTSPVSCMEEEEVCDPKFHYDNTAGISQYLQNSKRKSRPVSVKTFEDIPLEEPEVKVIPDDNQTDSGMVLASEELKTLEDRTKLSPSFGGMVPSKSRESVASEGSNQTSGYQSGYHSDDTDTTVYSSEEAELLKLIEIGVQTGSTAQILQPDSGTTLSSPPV
Chain of FGFR-1 (P11362 22-822, species assumed): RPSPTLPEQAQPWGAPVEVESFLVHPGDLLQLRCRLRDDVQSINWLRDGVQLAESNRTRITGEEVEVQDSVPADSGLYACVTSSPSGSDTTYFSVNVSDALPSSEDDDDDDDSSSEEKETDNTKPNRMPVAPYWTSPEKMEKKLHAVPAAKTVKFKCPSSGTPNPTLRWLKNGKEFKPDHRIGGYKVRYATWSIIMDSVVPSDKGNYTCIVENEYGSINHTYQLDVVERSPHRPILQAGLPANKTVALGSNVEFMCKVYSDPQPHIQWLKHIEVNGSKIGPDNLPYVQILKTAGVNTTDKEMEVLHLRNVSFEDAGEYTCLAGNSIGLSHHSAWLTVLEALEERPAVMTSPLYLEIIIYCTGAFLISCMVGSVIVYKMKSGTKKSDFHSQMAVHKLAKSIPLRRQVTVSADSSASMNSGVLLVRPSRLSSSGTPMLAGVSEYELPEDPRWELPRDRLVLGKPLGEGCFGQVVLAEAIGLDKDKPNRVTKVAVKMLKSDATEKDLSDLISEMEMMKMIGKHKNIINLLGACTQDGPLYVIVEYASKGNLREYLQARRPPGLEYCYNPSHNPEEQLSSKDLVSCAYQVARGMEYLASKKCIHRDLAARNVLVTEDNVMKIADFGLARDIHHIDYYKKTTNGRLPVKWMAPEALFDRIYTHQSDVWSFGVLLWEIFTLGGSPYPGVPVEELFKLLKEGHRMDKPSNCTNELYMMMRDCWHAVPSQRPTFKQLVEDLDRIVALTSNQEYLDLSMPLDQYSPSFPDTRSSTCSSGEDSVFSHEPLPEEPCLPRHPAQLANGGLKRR
Chain of CDK1 (P06493 whole entry, species assumed): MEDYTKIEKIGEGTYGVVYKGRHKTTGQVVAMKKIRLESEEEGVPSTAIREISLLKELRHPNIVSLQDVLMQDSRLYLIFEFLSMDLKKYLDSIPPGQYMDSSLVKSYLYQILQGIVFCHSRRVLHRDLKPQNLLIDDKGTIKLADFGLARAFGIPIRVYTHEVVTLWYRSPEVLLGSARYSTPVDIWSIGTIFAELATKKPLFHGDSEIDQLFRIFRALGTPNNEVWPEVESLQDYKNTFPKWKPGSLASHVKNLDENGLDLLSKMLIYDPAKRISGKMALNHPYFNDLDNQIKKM
Chain of CDK1 (P14635 whole entry partner, species assumed): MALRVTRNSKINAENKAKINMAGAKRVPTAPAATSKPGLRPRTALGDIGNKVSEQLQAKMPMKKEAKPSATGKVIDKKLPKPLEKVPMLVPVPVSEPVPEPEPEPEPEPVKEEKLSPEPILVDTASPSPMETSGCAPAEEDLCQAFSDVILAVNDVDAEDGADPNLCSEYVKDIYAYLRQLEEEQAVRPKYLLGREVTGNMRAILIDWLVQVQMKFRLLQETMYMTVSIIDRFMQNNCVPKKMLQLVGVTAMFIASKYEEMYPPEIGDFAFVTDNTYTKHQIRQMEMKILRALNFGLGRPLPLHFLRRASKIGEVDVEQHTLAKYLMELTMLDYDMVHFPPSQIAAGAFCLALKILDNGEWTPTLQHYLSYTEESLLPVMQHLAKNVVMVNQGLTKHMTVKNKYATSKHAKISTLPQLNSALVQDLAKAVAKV

## COc1ccc2c(c1)C(=NNC(=O)COc1cc(-c3nc4ccccc4s3)ccc1OC)C(=O)N2 [Compound 9o, 2-(5-(Benzo[d]thiazol-2-yl)-2-methoxyphenoxy)-N′-(5-methoxy-2-oxoindolin-3-ylidene)acetohydrazide]
[1]; Homo sapiens, TK-10, five dose
  GI50: 71.7 µM
[1]; TK-10, 10 μM
  GI%: 86.88%
[2]; A498, 10 μM
  GI%: – (GI% < 5%)
[2]; Homo sapiens, A498, five dose
  GI50: > 100 µM
[3]; CAKI-1, 10 μM
  GI%: 72.22%
[3]; Homo sapiens, CAKI-1, five dose
  GI50: 56.2 µM
[4]; 10 μM
  GI%: 96.99%
[4]; Homo sapiens, five dose
  GI50: 6.7 µM
[5]; Homo sapiens, RXF 393, five dose
  GI50: 5.06 µM
[5]; RXF 393, 10 μM
  GI%: 129.01%
[6]; 786-0, 10 μM
  GI%: 75.63%
[6]; Homo sapiens, 786-0, five dose
  GI50: 16.1 µM
[7]; 10 μM
  GI%: 24.01%
[7]; Homo sapiens, five dose
  GI50: 25.6 µM
[8]; Homo sapiens, UO-31, five dose
  GI50: 2.03 µM
[8]; UO-31, 10 μM
  GI%: 44.24%
[9]
  IC50: > 10 µM
[10]; from IC50 of Tables 4 and 5
  kinase selectivity: higher selectivity toward CDK2 and CDK5 over CDK1, VEGFR-2 and FGFR-1
[10]; mean of two independent experiments ± SD
  IC50: 0.21 ± 0.015 µM
[11]
  IC50: 1.19 ± 0.1 µM
[12]; HT29, 10 μM
  GI%: 20.32%
[12]; Homo sapiens, HT-29, HT29, five dose
  GI50: 26.8 µM
[13]; Homo sapiens, MCF7, five dose
  GI50: 3.44 µM
[13]; MCF7, 10 μM
  GI%: 82.77%
[14]
  GI50: 41 µM
[15]; 10 μM
  GI%: 34.64%
[15]; Homo sapiens, five dose
  GI50: 24.8 µM
[16]; 10 μM
  GI%: 75.41%
[16]; Homo sapiens, five dose
  GI50: 5.44 µM
[17]; Homo sapiens, MDA-MB-468, five dose
  GI50: 3.72 µM
[17]; MDA-MB-468, 10 μM
  GI%: 60.54%
[18]; BT-549, 10 μM
  GI%: 33.89%
[18]; Homo sapiens, BT-549, five dose
  GI50: 17.6 µM
[19]; Homo sapiens, PC-3, five dose
  GI50: 3.78 µM
[19]; PC-3, 10 μM
  GI%: 49.56%
[20]; DU-145, 10 μM
  GI%: 130.12%
[20]; Homo sapiens, DU-145, five dose
  GI50: 2.92 µM
[21]
  IC50: > 10 µM
other
  melting point: 199 to 201 °C
[22]
  IC50: 0.34 ± 0.02 µM
[23]; Homo sapiens, UACC-257, five dose
  GI50: > 100 µM
[23]; UACC-257, 10 μM
  GI%: – (GI% < 5%)
[24]; Homo sapiens, SK-MEL-5, five dose
  GI50: 41.5 µM
[24]; SK-MEL-5, 10 μM
  GI%: 24.21%
[25]; Homo sapiens, UACC-62, five dose
  GI50: 59.3 µM
[25]; UACC-62, 10 μM
  GI%: – (GI% < 5%)
[26]; Homo sapiens, MDA-MB-435, five dose
  GI50: 20.6 µM
[26]; MDA-MB-435, 10 μM
  GI%: 96.57%
[27]; 10 μM
  GI%: 160.95%
[27]; Homo sapiens, five dose
  GI50: 4.09 µM
[28]; 10 μM
  GI%: 35.23%
[28]; Homo sapiens, five dose
  GI50: 2.28 µM
[29]; Homo sapiens, SK-MEL-2, five dose
  GI50: > 100 µM
[29]; SK-MEL-2, 10 μM
  GI%: 26.06%
[30]; Homo sapiens, SK-MEL-28, five dose
  GI50: > 100 µM
[30]; SK-MEL-28, 10 μM
  GI%: 37.85%
[31]; Homo sapiens, M14, five dose
  GI50: 47.4 µM
[31]; M14, 10 μM
  GI%: 39.13%
[32]; Homo sapiens, U-251, U251, five dose
  GI50: 2.02 µM
[32]; U251, 10 μM
  GI%: 143.46%

Reference: article PMC11396129, “Oxindole–benzothiazole hybrids as CDK2 inhibitors and anticancer agents: design, synthesis and biological evaluation” (BMC Chemistry, 2024)
